Target: ATP-binding cassette sub-family C member 2 (Rattus norvegicus, UniProt Q63120)
Experiment: TP_TRANSPORTER: Western in vivo SD rat, liver
Format: functional, organism-based, Sprague-Dawley

Sequence of ATP-binding cassette sub-family C member 2 (Q63120 whole entry): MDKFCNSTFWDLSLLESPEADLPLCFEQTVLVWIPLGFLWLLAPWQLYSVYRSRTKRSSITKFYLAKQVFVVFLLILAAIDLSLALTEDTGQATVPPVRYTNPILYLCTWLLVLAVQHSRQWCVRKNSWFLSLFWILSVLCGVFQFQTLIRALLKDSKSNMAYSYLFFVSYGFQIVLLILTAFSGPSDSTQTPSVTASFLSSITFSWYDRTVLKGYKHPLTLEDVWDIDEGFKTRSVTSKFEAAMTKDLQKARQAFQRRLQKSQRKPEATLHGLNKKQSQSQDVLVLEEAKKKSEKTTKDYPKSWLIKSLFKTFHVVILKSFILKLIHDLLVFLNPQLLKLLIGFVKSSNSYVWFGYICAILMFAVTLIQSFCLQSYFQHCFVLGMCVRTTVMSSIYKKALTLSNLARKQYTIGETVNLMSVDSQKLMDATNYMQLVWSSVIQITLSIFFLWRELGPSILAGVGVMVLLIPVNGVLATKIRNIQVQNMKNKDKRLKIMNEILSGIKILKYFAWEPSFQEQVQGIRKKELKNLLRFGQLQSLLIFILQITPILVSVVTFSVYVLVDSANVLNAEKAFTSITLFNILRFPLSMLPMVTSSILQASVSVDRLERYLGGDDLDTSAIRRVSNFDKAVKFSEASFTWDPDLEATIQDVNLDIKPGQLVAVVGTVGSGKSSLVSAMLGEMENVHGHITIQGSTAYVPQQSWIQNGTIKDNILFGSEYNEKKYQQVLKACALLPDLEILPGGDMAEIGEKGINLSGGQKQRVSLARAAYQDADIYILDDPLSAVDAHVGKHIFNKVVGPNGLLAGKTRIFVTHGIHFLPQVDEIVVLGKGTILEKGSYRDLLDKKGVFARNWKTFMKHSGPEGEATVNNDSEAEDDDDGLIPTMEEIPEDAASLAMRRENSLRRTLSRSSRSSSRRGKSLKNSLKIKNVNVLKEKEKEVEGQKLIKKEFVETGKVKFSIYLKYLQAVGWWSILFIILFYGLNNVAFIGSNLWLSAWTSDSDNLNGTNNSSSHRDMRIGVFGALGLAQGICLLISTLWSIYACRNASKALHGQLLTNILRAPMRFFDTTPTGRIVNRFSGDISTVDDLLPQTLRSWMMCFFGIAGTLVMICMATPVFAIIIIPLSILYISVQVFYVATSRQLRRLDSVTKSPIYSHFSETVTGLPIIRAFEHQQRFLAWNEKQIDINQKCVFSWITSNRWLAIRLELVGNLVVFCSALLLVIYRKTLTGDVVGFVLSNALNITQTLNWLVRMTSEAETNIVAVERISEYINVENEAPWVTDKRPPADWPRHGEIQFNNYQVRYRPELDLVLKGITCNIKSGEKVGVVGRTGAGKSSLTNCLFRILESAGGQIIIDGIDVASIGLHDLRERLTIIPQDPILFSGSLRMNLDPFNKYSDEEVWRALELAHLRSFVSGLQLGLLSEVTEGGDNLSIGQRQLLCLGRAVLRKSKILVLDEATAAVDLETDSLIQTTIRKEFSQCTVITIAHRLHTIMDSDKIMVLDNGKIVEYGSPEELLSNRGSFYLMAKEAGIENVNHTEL

Row | Compound | Activity
1 | CCC1(c2ccccc2)C(=O)NC(=O)NC1=O [PHENOBARBITAL] | inducer [+]
2 | CC(=O)[C@H]1[C@H](C#N)C[C@H]2[C@@H]3CC=C4C[C@@H](O)CC[C@]4(C)[C@H]3CC[C@@]21C [PREGNENOLONE CARBONITRILE] | inducer [+]
